Measured values reported in the NIST ThermoML archive (doi:10.1021/acs.jced.9b00334).

Conditions: Liquid, Vibrating tube method

CCCCn1cc[n+](C)c1.CCCCn1cc[n+](C)c1.[Co+2].[N-]=C=S.[N-]=C=S.[N-]=C=S.[N-]=C=S [bis(1-butyl-3-methylimidazolium) tetrathiocyanatocobaltate]
mass density [kg/m3]
Conditions | 283.16 K | 293.13 K | 303.17 K | 313.17 K | 323.18 K | 333.15 K | 343.14 K | 353.13 K | 363.14 K
100 kPa | 1233.1 | 1226.4 | 1219.6 | 1212.6 | 1205.8 | 1199 | 1192.4 | 1185.8 | 1179.2
1000 kPa | 1233.5 | 1226.9 | 1220.1 | 1213.2 | 1206.3 | 1199.5 | 1192.9 | 1186.3 | 1179.8
2000 kPa | 1233.9 | 1227.4 | 1220.5 | 1213.6 | 1206.8 | 1200.1 | 1193.5 | 1186.9 | 1180.3
5000 kPa | 1235.3 | 1228.9 | 1222.1 | 1215.2 | 1208.3 | 1201.8 | 1195.1 | 1188.6 | 1182
7000 kPa | 1236.2 | 1229.7 | 1222.9 | 1216.2 | 1209.4 | 1202.7 | 1196.2 | 1189.6 | 1183.2
10000 kPa | 1237.6 | 1231.1 | 1224.3 | 1217.7 | 1210.8 | 1204.2 | 1197.7 | 1191.2 | 1184.8
15000 kPa | 1239.8 | 1233.5 | 1226.8 | 1220.1 | 1213.3 | 1206.7 | 1200.4 | 1193.8 | 1187.5
20000 kPa | 1241.9 | 1235.6 | 1229.1 | 1222.5 | 1215.8 | 1209.2 | 1202.8 | 1196.5 | 1190
25000 kPa | 1244 | 1237.6 | 1231.3 | 1224.8 | 1218.1 | 1211.6 | 1205.1 | 1198.9 | 1192.6
30000 kPa | 1245.9 | 1239.7 | 1233.5 | 1226.9 | 1220.5 | 1213.9 | 1207.5 | 1201.3 | 1195
35000 kPa | 1248 | 1241.8 | 1235.6 | 1229.1 | 1222.8 | 1216.2 | 1209.8 | 1203.6 | 1197.4
40000 kPa | 1250.1 | 1243.8 | 1237.7 | 1231.3 | 1224.9 | 1218.3 | 1212.2 | 1205.9 | 1199.9
45000 kPa | 1251.9 | 1245.9 | 1239.7 | 1233.3 | 1227 | 1220.5 | 1214.4 | 1208.1 | 1202.2
50000 kPa | 1253.9 | 1248 | 1241.7 | 1235.3 | 1229.1 | 1222.8 | 1216.4 | 1210.5 | 1204.5
55000 kPa | 1255.8 | 1250 | 1243.6 | 1237.4 | 1231.1 | 1224.9 | 1218.6 | 1212.8 | 1206.7
60000 kPa | 1257.6 | 1251.9 | 1245.6 | 1239.4 | 1233.2 | 1227 | 1220.7 | 1215.1 | 1208.9
65000 kPa | 1259.4 | 1253.8 | 1247.5 | 1241.3 | 1235.1 | 1229.1 | 1222.9 | 1216.9 | 1211.2
70000 kPa | 1261.3 | 1255.5 | 1249.4 | 1243.4 | 1237.2 | 1231 | 1225 | 1219 | 1213.2
75000 kPa | 1263.2 | 1257.4 | 1251.3 | 1245.2 | 1239.2 | 1233 | 1227 | 1221.1 | 1215.3
80000 kPa | 1264.9 | 1259.1 | 1253.1 | 1247 | 1241 | 1235.1 | 1229.1 | 1223.1 | 1217.3
85000 kPa | 1266.6 | 1261 | 1254.8 | 1248.9 | 1242.9 | 1236.9 | 1231 | 1225.2 | 1219.3
90000 kPa | 1268.4 | 1262.6 | 1256.7 | 1250.6 | 1244.8 | 1238.9 | 1232.8 | 1227.1 | 1221.4
95000 kPa | 1270.1 | 1264.4 | 1258.5 | 1252.5 | 1246.5 | 1240.7 | 1234.8 | 1229.1 | 1223.3

CCn1cc[n+](C)c1.CCn1cc[n+](C)c1.[Co+2].[N-]=C=S.[N-]=C=S.[N-]=C=S.[N-]=C=S [bis(1-ethyl-3-methylimidazolium) tetrathiocyanatocobaltate]
mass density [kg/m3]
Conditions | 283.1 K | 293.1 K | 303.1 K | 313.2 K | 323.2 K | 333.2 K | 343.1 K | 353.1 K | 363.1 K
100 kPa | 1286.1 | 1278.7 | 1271.5 | 1264.4 | 1257.3 | 1250.3 | 1243.3 | 1236.4 | 1229.5
1000 kPa | 1286.5 | 1279.1 | 1272 | 1264.9 | 1257.8 | 1250.7 | 1243.7 | 1236.9 | 1230.1
2000 kPa | 1287 | 1279.6 | 1272.5 | 1265.3 | 1258.4 | 1251.3 | 1244.3 | 1237.5 | 1230.6
5000 kPa | 1288.4 | 1281.1 | 1273.9 | 1266.8 | 1259.9 | 1253 | 1246 | 1239.2 | 1232.4
7000 kPa | 1289.3 | 1282.1 | 1274.9 | 1267.9 | 1260.9 | 1253.9 | 1247 | 1240.3 | 1233.5
10000 kPa | 1290.6 | 1283.4 | 1276.3 | 1269.4 | 1262.5 | 1255.3 | 1248.6 | 1241.7 | 1235.1
15000 kPa | 1292.8 | 1285.7 | 1278.6 | 1271.7 | 1265 | 1257.9 | 1251.3 | 1244.3 | 1237.7
20000 kPa | 1295 | 1287.9 | 1281 | 1274.1 | 1267.3 | 1260.1 | 1253.7 | 1246.9 | 1240.4
25000 kPa | 1297.1 | 1290 | 1283.1 | 1276.3 | 1269.6 | 1262.7 | 1256 | 1249.4 | 1243
30000 kPa | 1299.1 | 1292.1 | 1285.4 | 1278.7 | 1271.9 | 1265.1 | 1258.3 | 1251.9 | 1245.6
35000 kPa | 1301.1 | 1294.3 | 1287.6 | 1280.9 | 1274.1 | 1267.5 | 1260.6 | 1254.3 | 1248.2
40000 kPa | 1303.2 | 1296.3 | 1289.6 | 1282.9 | 1276.4 | 1269.5 | 1263 | 1256.7 | 1250.5
45000 kPa | 1305.2 | 1298.4 | 1291.7 | 1285.1 | 1278.6 | 1272 | 1265.5 | 1259.1 | 1252.7
50000 kPa | 1307.2 | 1300.5 | 1294 | 1287.4 | 1280.8 | 1274.2 | 1267.7 | 1261.2 | 1254.9
55000 kPa | 1309 | 1302.5 | 1295.9 | 1289.5 | 1282.9 | 1276.4 | 1269.6 | 1263.6 | 1257.2
60000 kPa | 1311 | 1304.3 | 1297.9 | 1291.4 | 1285 | 1278.4 | 1271.8 | 1265.7 | 1259.4
65000 kPa | 1312.9 | 1306.3 | 1299.7 | 1293.3 | 1287 | 1280.4 | 1274.1 | 1267.7 | 1261.6
70000 kPa | 1314.8 | 1308.3 | 1301.7 | 1295.3 | 1288.9 | 1282.4 | 1275.9 | 1269.9 | 1263.7
75000 kPa | 1316.6 | 1310.2 | 1303.7 | 1297.2 | 1290.9 | 1284.6 | 1277.9 | 1272 | 1265.8
80000 kPa | 1318.3 | 1312.2 | 1305.4 | 1299 | 1292.8 | 1286.5 | 1280.2 | 1274.2 | 1267.8
85000 kPa | 1320 | 1313.9 | 1307.4 | 1301.1 | 1294.7 | 1288.6 | 1282.4 | 1276.1 | 1270.1
90000 kPa | 1321.9 | 1315.6 | 1309.4 | 1302.9 | 1296.8 | 1290.4 | 1284.3 | 1278.2 | 1272.1
95000 kPa | 1323.8 | 1317.5 | 1311 | 1304.8 | 1298.7 | 1292.5 | 1286.1 | 1280.2 | 1273.8
